# Reference: patent publication US11178871B2, “Herbicidal pyrimidine compounds” (BASF SE, priority 2016, dated 2021)
# Assays:
# Format in all cases: in vivo
# [1] = tested on: Apera spica-venti; assay: greenhouse test, pre-emergence treatment, APESV
# In short: (§1)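 Pre-emergence greenhouse test: seeds sown per species in loamy sand (about 3.0% humus), aqueous suspension or emulsion of active sprayed right after sowing, pots covered until rooting. Kept at 10-25 °C or 20-35 °C for 2 to 4 weeks; damage scored 0 (none) to 100 (no emergence/complete destruction).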
# [2] = tested on: Abutilon theophrasti; assay: greenhouse test, post-emergence treatment, ABUTH; conditions: 1000 g/ha
# Text: (§2) The culture containers used were plastic flowerpots containing loamy sand with approximately 3.0% of humus as the substrate. The seeds of the test plants were sown separately for each species.
# (§3) For the post-emergence treatment, the test plants were first grown to a height of 3 to 15 cm, depending on the plant habit, and only then treated with the active ingredients which had been suspended or emulsified in water. For this purpose, the test plants were either sown directly and grown in the same containers, or they were first grown separately as seedlings and transplanted into the test containers a few days prior to treatment.
# (§4) Depending on the species, the plants were kept at 10-25° C. or 20-35° C., respectively.
# (§5) The test period extended over 2 to 4 weeks. During this time, the plants were tended, and their response to the individual treatments was evaluated.
# (§6) Evaluation was carried out using a scale from 0 to 100. 100 means no emergence of the plants, or complete destruction of at least the aerial moieties, and 0 means no damage, or normal course of growth. A good herbicidal activity is given at values of at least 70 and a very good herbicidal activity is given at values of at least 85.
# (§7) The plants used in the greenhouse experiments were of the following species: […]
# [3] = tested on: Echinocloa crus-galli; assay: greenhouse test, post-emergence treatment, ECHCG; conditions: post-emergence
# In short: (§8)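 Post-emergence: plants grown in loamy sand (~3.0% humus) to 3-15 cm, then sprayed with active ingredient suspended or emulsified in water; kept at 10-25 °C or 20-35 °C by species. Damage rated visually after 2-4 weeks, 0 (none) to 100 (complete destruction of aerial parts).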
# [4] = tested on: Amaranthus retroflexus; assay: greenhouse test, post-emergence treatment, AMARE
# Text: as §2, §3, §4, §5, §6, §7
# [5] = tested on: Setaria viridis; assay: greenhouse test, post-emergence treatment, SETVI
# Text: as §2, §3, §4, §5, §6, §7
# [6] = tested on: Alopecurus myosuroides; assay: greenhouse test, post-emergence treatment, ALOMY; conditions: post-emergence
# In short: as §8
# [7] = tested on: Echinocloa crus-galli; assay: greenhouse test, pre-emergence treatment, ECHCG
# In short: as §1
# [8] = tested on: Avena fatua; assay: greenhouse test, post-emergence treatment, AVEFA
# In short: as §8
structure (smiles),measurement,setting,value
COc1ncc(-c2ccccc2Cl)c(/C=C/c2ccco2)n1 [Ex. 228],herbicidal activity,[1]; 1000 g/ha,very good (a very good herbicidal activity is given at values of at least 85)
same,herbicidal activity,[2],good (A good herbicidal activity is given at values of at least 70)
same,herbicidal activity,[3]; 1000 g/ha,good (A good herbicidal activity is given at values of at least 70)
Clc1ccccc1-c1cnc(C2CC2)nc1C1CCCS1 (centres unmarked) [Ex. 55],herbicidal activity,[4]; 1000 g/ha,very good (a very good herbicidal activity is given at values of at least 85)
same,herbicidal activity,[5]; 1000 g/ha,very good (a very good herbicidal activity is given at values of at least 85)
Cn1c(-c2nc(C3CC3)ncc2-c2ccccc2Cl)coc1=O [Ex. 289],herbicidal activity,[4]; 2000 g/ha,very good (a very good herbicidal activity is given at values of at least 85)
same,herbicidal activity,[6]; 2000 g/ha,very good (a very good herbicidal activity is given at values of at least 85)
same,herbicidal activity,[1]; 2000 g/ha,very good (a very good herbicidal activity is given at values of at least 85)
same,herbicidal activity,[5]; 2000 g/ha,very good (a very good herbicidal activity is given at values of at least 85)
same,herbicidal activity,[7]; 2000 g/ha,very good (a very good herbicidal activity is given at values of at least 85)
Clc1ccccc1-c1cnc(C2CC2)nc1-c1ccco1 [Ex. 24],herbicidal activity,[1]; 2000 g/ha,very good (a very good herbicidal activity is given at values of at least 85)
same,herbicidal activity,[5]; 2000 g/ha,very good (a very good herbicidal activity is given at values of at least 85)
same,herbicidal activity,[7]; 2000 g/ha,very good (a very good herbicidal activity is given at values of at least 85)
same,herbicidal activity,[3]; 2000 g/ha,very good (a very good herbicidal activity is given at values of at least 85)
Clc1ccccc1-c1cnc(C2CC2)nc1-c1cccnc1 [Ex. 123],herbicidal activity,[4]; 2000 g/ha,very good (a very good herbicidal activity is given at values of at least 85)
same,herbicidal activity,[5]; 2000 g/ha,good (A good herbicidal activity is given at values of at least 70)
Clc1ccc(-c2nc(C3CC3)ncc2-c2ccccc2Cl)s1 [Ex. 119],herbicidal activity,[6]; 1000 g/ha,very good (a very good herbicidal activity is given at values of at least 85)
same,herbicidal activity,[5]; 1000 g/ha,good (A good herbicidal activity is given at values of at least 70)
Cc1nc(C)c(-c2nc(C3CC3)ncc2-c2cc(Br)ccc2Br)o1 [Ex. 292],herbicidal activity,[6]; 1000 g/ha,good (A good herbicidal activity is given at values of at least 70)
same,herbicidal activity,[1]; 1000 g/ha,very good (a very good herbicidal activity is given at values of at least 85)
same,herbicidal activity,[5]; 1000 g/ha,very good (a very good herbicidal activity is given at values of at least 85)
same,herbicidal activity,[7]; 1000 g/ha,very good (a very good herbicidal activity is given at values of at least 85)
same,herbicidal activity,[3]; 1000 g/ha,very good (a very good herbicidal activity is given at values of at least 85)
CCc1nc(C)c(-c2nc(C3CC3)ncc2-c2ccccc2Cl)o1 [Ex. 272],herbicidal activity,[8]; 2000 g/ha,very good (a very good herbicidal activity is given at values of at least 85)
same,herbicidal activity,[6]; 2000 g/ha,very good (a very good herbicidal activity is given at values of at least 85)
same,herbicidal activity,[1]; 2000 g/ha,very good (a very good herbicidal activity is given at values of at least 85)
same,herbicidal activity,[5]; 2000 g/ha,very good (a very good herbicidal activity is given at values of at least 85)
same,herbicidal activity,[7]; 2000 g/ha,very good (a very good herbicidal activity is given at values of at least 85)
Cc1coc(C)c1-c1nc(C2CC2)ncc1-c1ccccc1Br [Ex. 252],herbicidal activity,[2],very good (a very good herbicidal activity is given at values of at least 85)
CCc1ocnc1-c1nc(C2CC2)ncc1-c1ccccc1Cl [Ex. 282],herbicidal activity,[8]; 2000 g/ha,very good (a very good herbicidal activity is given at values of at least 85)
same,herbicidal activity,[6]; 2000 g/ha,very good (a very good herbicidal activity is given at values of at least 85)
same,herbicidal activity,[1]; 2000 g/ha,very good (a very good herbicidal activity is given at values of at least 85)
same,herbicidal activity,[5]; 2000 g/ha,very good (a very good herbicidal activity is given at values of at least 85)
same,herbicidal activity,[7]; 2000 g/ha,very good (a very good herbicidal activity is given at values of at least 85)
Cc1ccoc1-c1nc(C2CC2)ncc1-c1ccccc1Cl [Ex. 30],herbicidal activity,[6]; 2000 g/ha,very good (a very good herbicidal activity is given at values of at least 85)
same,herbicidal activity,[1]; 2000 g/ha,very good (a very good herbicidal activity is given at values of at least 85)
same,herbicidal activity,[5]; 2000 g/ha,very good (a very good herbicidal activity is given at values of at least 85)
same,herbicidal activity,[7]; 2000 g/ha,very good (a very good herbicidal activity is given at values of at least 85)
Cc1occc1-c1nc(C2CC2)ncc1-c1ccccc1Cl [Ex. 58],herbicidal activity,[8]; 1000 g/ha,good (A good herbicidal activity is given at values of at least 70)
same,herbicidal activity,[5]; 1000 g/ha,very good (a very good herbicidal activity is given at values of at least 85)
Cc1nc(-c2nc(C3CC3)ncc2-c2ccccc2Cl)c(C)o1 [Ex. 277],herbicidal activity,[6]; 1000 g/ha,very good (a very good herbicidal activity is given at values of at least 85)
same,herbicidal activity,[1]; 1000 g/ha,very good (a very good herbicidal activity is given at values of at least 85)
same,herbicidal activity,[5]; 1000 g/ha,very good (a very good herbicidal activity is given at values of at least 85)
same,herbicidal activity,[7]; 1000 g/ha,very good (a very good herbicidal activity is given at values of at least 85)
same,herbicidal activity,[3]; 1000 g/ha,very good (a very good herbicidal activity is given at values of at least 85)
Cc1ncoc1-c1nc(C2CC2)ncc1-c1cc(C(F)(F)F)ccc1Cl [Ex. 262],herbicidal activity,[4]; 1000 g/ha,very good (a very good herbicidal activity is given at values of at least 85)
same,herbicidal activity,[1]; 1000 g/ha,very good (a very good herbicidal activity is given at values of at least 85)
same,herbicidal activity,[5]; 1000 g/ha,very good (a very good herbicidal activity is given at values of at least 85)
same,herbicidal activity,[7]; 1000 g/ha,very good (a very good herbicidal activity is given at values of at least 85)
same,herbicidal activity,[3]; 1000 g/ha,very good (a very good herbicidal activity is given at values of at least 85)
Cc1ncoc1-c1nc(C2CC2)ncc1-c1cc(Br)ccc1Br [Ex. 273],herbicidal activity,[4]; 1000 g/ha,very good (a very good herbicidal activity is given at values of at least 85)
same,herbicidal activity,[6]; 1000 g/ha,very good (a very good herbicidal activity is given at values of at least 85)
same,herbicidal activity,[1]; 1000 g/ha,very good (a very good herbicidal activity is given at values of at least 85)
same,herbicidal activity,[5]; 1000 g/ha,very good (a very good herbicidal activity is given at values of at least 85)
same,herbicidal activity,[7]; 1000 g/ha,very good (a very good herbicidal activity is given at values of at least 85)
Clc1ccccc1-c1cnc(C2CC2)nc1C=C1CCOCC1 [Ex. 92],herbicidal activity,[6]; 2000 g/ha,good (A good herbicidal activity is given at values of at least 70)
same,herbicidal activity,[5]; 2000 g/ha,good (A good herbicidal activity is given at values of at least 70)
same,herbicidal activity,[3]; 2000 g/ha,good (A good herbicidal activity is given at values of at least 70)
Cc1cc(-c2nc(C3CC3)ncc2-c2ccccc2Br)co1 [Ex. 271],herbicidal activity,[5]; 1000 g/ha,very good (a very good herbicidal activity is given at values of at least 85)
same,herbicidal activity,[3]; 1000 g/ha,good (A good herbicidal activity is given at values of at least 70)
Clc1ccccc1-c1cnc(C2CC2)nc1-c1ccc(Br)o1 [Ex. 31],herbicidal activity,[6]; 2000 g/ha,very good (a very good herbicidal activity is given at values of at least 85)
same,herbicidal activity,[1]; 2000 g/ha,very good (a very good herbicidal activity is given at values of at least 85)
same,herbicidal activity,[5]; 2000 g/ha,very good (a very good herbicidal activity is given at values of at least 85)
same,herbicidal activity,[7]; 2000 g/ha,very good (a very good herbicidal activity is given at values of at least 85)
Cc1nc(C(C)(Br)Br)ncc1-c1ccccc1Cl [Ex. 50],herbicidal activity,[4]; 500 g/ha,very good (a very good herbicidal activity is given at values of at least 85)
same,herbicidal activity,[5]; 500 g/ha,very good (a very good herbicidal activity is given at values of at least 85)
Ic1ccccc1-c1cnc(C2CC2)nc1-c1ccco1 [Ex. 76],herbicidal activity,[6]; 1000 g/ha,good (A good herbicidal activity is given at values of at least 70)
same,herbicidal activity,[5]; 1000 g/ha,very good (a very good herbicidal activity is given at values of at least 85)
CC1(C)OCC(=Cc2nc(C3CC3)ncc2-c2ccccc2Cl)CO1 [Ex. 296],herbicidal activity,[2],very good (a very good herbicidal activity is given at values of at least 85)
CC(O)c1nc(C2CC2)ncc1-c1ccccc1Cl (centres unmarked) [Ex. 49],herbicidal activity,[6]; 1000 g/ha,very good (a very good herbicidal activity is given at values of at least 85)
same,herbicidal activity,[1]; 1000 g/ha,good (A good herbicidal activity is given at values of at least 70)
same,herbicidal activity,[5]; 1000 g/ha,very good (a very good herbicidal activity is given at values of at least 85)
same,herbicidal activity,[7]; 1000 g/ha,good (A good herbicidal activity is given at values of at least 70)
same,herbicidal activity,[3]; 1000 g/ha,good (A good herbicidal activity is given at values of at least 70)
